{"source": "patent EP4650361A1", "about": "“ARGININE OPTICAL PROBE” (East China University of Science and Technology, priority 2023, dated 2024)", "key": {"[1]": {"test_system": "Salmonella Typhimurium arginine-binding protein STM4351 variant E37A with cpYFP inserted at the 200/203 site (STM4351-200/203-E37A-cpYFP), SEQ ID NO: 5", "assay": "Fluorescence response and titration of purified probe with arginine", "procedure": "(§1) • 1. Transform the pET28a-based arginine probe plasmid into BL21(DE3), culture overnight in an inverted manner, pick a clone from the plate into a 250 ml conical flask, place in a 37 °C shaker, culture at 220 rpm until OD = 0.4-0.8, add IPTG (1 M) at 1/1000 (v/v), and induce expression at 18 °C for 24-36 h. • 2. After induction expression, collect the bacteria by centrifugation at 4000 rpm for 30 minutes, add 50 mM phosphate buffer to resuspend the bacterial pellet, and ultrasonically disrupt until the bacteria are clarified. Centrifuge at 9600 rpm at 4 °C for 20 minutes. • 3. The centrifuged supernatant is purified by a self-assembled nickel column affinity chromatography column to obtain the protein, and the protein after nickel column affinity chromatography is then passed through a self-assembled desalting column to obtain the protein dissolved in 20 mM MOPS buffer (pH 7.4) or phosphate buffer PBS. • 4. The purified arginine-binding protein mutant protein is identified by SDS-PAGE, and the probe is diluted with assay buffer (100 mM HEPES, 100 mM NaCl, pH 7.3) or phosphate buffer PBS to a final concentration of 5-10 µM protein solution. Prepare arginine into a stock solution with a final concentration of 1 M using assay buffer (20 mM MOPS, pH 7.4) or phosphate buffer PBS. • 5. Take 100 µl of 5 µM protein solution, incubate at 37 °C for 5 min, add arginine respectively and mix to a final concentration of 100 mM, and measure the light absorption of the protein at 340 nm using a multifunctional fluorescence microplate reader. • 6. Take 100 µl of 1 µM fluorescent probe solution, incubate at 37 °C for 5 min, add arginine for titration, and measure the fluorescence intensity of the protein at 528 nm emission after 485 nm fluorescence excitation. The measurement of fluorescence excitation and emission of samples is completed using a multifunctional fluorescence microplate reader. • 7. Take 100 µl of 1 µM fluorescent probe solution, incubate at 37 °C for 5 min, add arginine, and measure the absorption spectrum and fluorescence spectrum of the probe protein. The measurement of absorption spectrum and fluorescence spectrum of samples is completed by a spectrophotometer and a fluorescence spectrophotometer.\nScreen the purified STM4351-cpYFP fusion protein for arginine response, and divide the detection signal of the fusion fluorescent protein containing 100 mM arginine by the detection signal of the fusion fluorescent protein without arginine. […]\nPurify the mutant STM4351-200/203-E37A-cpYFP with high response multiple and good specificity. […] Determination of emission spectrum: fix the excitation wavelengths at 420 nm and 485 nm respectively, record the emission spectrum at […]-540 nm, and read once every 5 nm."}, "[2]": {"test_system": "Salmonella Typhimurium arginine-binding protein STM4351 variant G89A with cpYFP inserted at the 200/203 site (STM4351-200/203-G89A-cpYFP), SEQ ID NO: 7", "assay": "Fluorescence response and titration of purified probe with arginine", "procedure": "• 1. Transform the pET28a-based arginine probe plasmid into BL21(DE3), culture overnight in an inverted manner, pick a clone from the plate into a 250 ml conical flask, place in a 37 °C shaker, culture at 220 rpm until OD = 0.4-0.8, add IPTG (1 M) at 1/1000 (v/v), and induce expression at 18 °C for 24-36 h. • 2. After induction expression, collect the bacteria by centrifugation at 4000 rpm for 30 minutes, add 50 mM phosphate buffer to resuspend the bacterial pellet, and ultrasonically disrupt until the bacteria are clarified. Centrifuge at 9600 rpm at 4 °C for 20 minutes. • 3. […] Take 100 µl of 5 µM protein solution, incubate at 37 °C for 5 min, add arginine respectively and mix to a final concentration of 100 mM, and measure the light absorption of the protein at 340 nm using a multifunctional fluorescence microplate reader. • 6. Take 100 µl of 1 µM fluorescent probe solution, incubate at 37 °C for 5 min, add arginine for titration, and measure the fluorescence intensity of the protein at 528 nm emission after 485 nm fluorescence excitation. The measurement of fluorescence excitation and emission of samples is completed using a multifunctional fluorescence microplate reader. • 7. Take 100 µl of 1 µM fluorescent probe solution, incubate at 37 °C for 5 min, add arginine, and measure the absorption spectrum and fluorescence spectrum of the probe protein. […]"}, "[3]": {"test_system": "Salmonella Typhimurium arginine-binding protein STM4351 variant T138A with cpYFP inserted at the 200/203 site (STM4351-200/203-T138A-cpYFP), SEQ ID NO: 12", "assay": "Fluorescence response and titration of purified probe with arginine", "procedure": "as §1, with “Prepare arginine into a stock solution with a final concentration of 1 M using assay buffer (20 mM MOPS, pH 7.4) or phosphate buffer PBS. • 5.” left out, “spectrophotometer. […]” for “spectrophotometer.”"}, "[4]": {"test_system": "Salmonella Typhimurium arginine-binding protein STM4351 variant D91A with cpYFP inserted at the 200/203 site (STM4351-200/203-D91A-cpYFP), SEQ ID NO: 9", "assay": "Fluorescence response of purified probe to arginine", "settings": "signal with 100 mM arginine divided by signal without arginine, Figure 2", "procedure": "as §1, with “Prepare arginine into a stock solution with a final concentration of 1 M using assay buffer (20 mM MOPS, pH 7.4) or phosphate buffer PBS. • 5.” left out, “spectrophotometer. […]” for “spectrophotometer.”"}, "[5]": {"test_system": "Salmonella Typhimurium arginine-binding protein STM4351 variant T32A with cpYFP inserted at the 200/203 site (STM4351-200/203-T32A-cpYFP), SEQ ID NO: 4", "assay": "Fluorescence response of purified probe to arginine", "settings": "signal with 100 mM arginine divided by signal without arginine, Figure 2", "procedure": "as §1, with “Prepare arginine into a stock solution with a final concentration of 1 M using assay buffer (20 mM MOPS, pH 7.4) or phosphate buffer PBS. • 5.” left out, “spectrophotometer. […]” for “spectrophotometer.”"}, "[6]": {"test_system": "Salmonella Typhimurium arginine-binding protein STM4351 variant H140A with cpYFP inserted at the 200/203 site (STM4351-200/203-H140A-cpYFP), SEQ ID NO: 14", "assay": "Fluorescence response of purified probe to arginine", "settings": "signal with 100 mM arginine divided by signal without arginine, Figure 2", "procedure": "as §1, with “Prepare arginine into a stock solution with a final concentration of 1 M using assay buffer (20 mM MOPS, pH 7.4) or phosphate buffer PBS. • 5.” left out, “spectrophotometer. […]” for “spectrophotometer.”"}, "[7]": {"settings": "500 mM arginine compared with 0 mM arginine, Figure 4"}}, "note": "pKd: −log10 of the molar value.", "data": [{"smiles": "N=C(N)NCCC[C@H](N)C(=O)O", "note": "[arginine, Arginine]", "values": [{"measurement": "fluorescence intensity under 420 nm excitation", "setting": "[1]; [7]", "result": "basically unchanged"}, {"measurement": "fluorescence intensity under 485 nm excitation", "setting": "[1]; [7]", "result": "about 15.0 times"}, {"measurement": "response to arginine", "setting": "[1]; arginine titration, Figure 3", "result": "about 15 times"}, {"measurement": "pKd", "setting": "[1]; arginine titration, Figure 3, saturation at 10 mM arginine, read-out: affinity for the substrate", "result": "3.68 to 3.77"}, {"measurement": "response to arginine, response multiple", "setting": "[2]; Figure 3", "result": "about 1.29"}, {"measurement": "pKd", "setting": "[2]; Figure 3, read-out: affinity for the substrate", "result": 4.63}, {"measurement": "response to arginine, response multiple", "setting": "[3]; arginine titration, Figure 3", "result": "~3.14"}, {"measurement": "pKd", "setting": "[3]; arginine titration, Figure 3, read-out: affinity for the substrate", "result": 3.72}, {"measurement": "response to arginine", "setting": "[3]; signal with 100 mM arginine divided by signal without arginine, Figure 2", "result": "exceeding 3 times"}, {"measurement": "response to arginine", "setting": "[4]", "result": "exceeding 3 times"}, {"measurement": "response to arginine", "setting": "[5]", "result": "exceeding 3 times"}, {"measurement": "response to arginine", "setting": "[6]", "result": "exceeding 3 times"}]}]}
